This data set can be described thus: Solubility in aqueous media. In kind it is physicochemical. The text has this: The compounds mentioned at the outset and pharmaceutically usable salts thereof, such as, for example, ethanolamine salts thereof, have low solubilities in aqueous media. […] These poor solubilities have the consequence that the compound can only be taken up slowly and to an inadequate extent by the body. This is associated with poor bioavailability and a slow increase in the concentration in the blood.

≈ marks a conversion by molar mass, not a printed value. Like-named read-outs stand apart in the source and are kept apart here.

In the case of `COc1ccc(CNc2nc(C3CCC(C(=O)O)CC3)nc3sc4ccccc4c23)cc1Cl` (centres unmarked) [4-[4-(3-Chloro-4-methoxybenzylamino)benzo[4,5]thieno[2,3-d]pyrimidin-2-yl]cyclohexanecarboxylic acid], the solubility is 0.022 µg/mL (≈ 0.0456 µM) (aqueous buffer, phosphate buffer (pH 1.0), read-out: solubility); 0.0016 µg/mL (≈ 0.00332 µM) (aqueous buffer, phosphate buffer (pH 6), read-out: solubility); 0.019 µg/mL (≈ 0.0394 µM) (aqueous buffer, phosphate buffer (pH 7.0), read-out: solubility); 1 mg/100 ml (synthetic gastric juice); 6 mg/100 ml (synthetic intestinal juice).

These data come from US20040082600A1, “Pharmaceutical composition” (priority 2001, published 2004).
